Source: ChEMBL document CHEMBL5523674, “Design, synthesis, and biological evaluation of 2-(naphthalen-1-yloxy)-N-phenylacetamide derivatives as TRPM4 inhibitors for the treatment of prostate cancer” (Bioorg Med Chem, 2024)
Each block holds one compound with its values, some of them ahead of it. Active and inactive are the calls of the source. The calls are words filed in the database; no cut-off is given here.

Assays:
LNCaP [1] = assay: Antiproliferative activities against human LNCaP cells assessed as cell viability measured after 72 hrs by CCK8 assay; assay type: functional, cell-based
LNCaP C4-2B [2] = assay: Antiproliferative activities against human LNCaP C4-2B cells assessed as cell viability measured after 72 hrs by CCK8 assay; assay type: functional, cell-based
LNCaP C4-2B [3] = assay: Induction of apoptosis in human LNCaP C4-2B cells assessed as apoptotic cells at 5 uM measured after 48 hrs of incubation by Annexin V-FITC staining based flow cytometry relative to control; assay type: functional
LNCaP C4-2B [4] = assay: Induction of apoptosis in human LNCaP C4-2B cells assessed as apoptotic cells at 10 uM measured after 48 hrs of incubation by Annexin V-FITC staining based flow cytometry relative to control; assay type: functional
LNCaP C4-2B [5] = assay: Induction of apoptosis in human LNCaP C4-2B cells assessed as apoptotic cells at 20 uM measured after 48 hrs of incubation by Annexin V-FITC staining based flow cytometry relative to control; assay type: functional
LNCaP C4-2B [6] = assay: Induction of apoptosis in human LNCaP C4-2B cells assessed as apoptotic cells at 40 uM measured after 48 hrs of incubation by Annexin V-FITC staining based flow cytometry relative to control; assay type: functional
LNCaP C4-2B [7] = assay: Induction of cell cycle arrest in human LNCaP C4-2B cells assessed as accumulation cells at G0/G1 phase at 5 uM measured after 48 hrs incubation by flow cytometry (reference value: 70.82%); assay type: functional
LNCaP C4-2B [8] = assay: Induction of cell cycle arrest in human LNCaP C4-2B cells assessed as accumulation cells at G2/M phase at 5 uM measured after 48 hrs incubation by flow cytometry (reference value: 10.85%); assay type: functional
LNCaP C4-2B [9] = assay: Induction of cell cycle arrest in human LNCaP C4-2B cells assessed as accumulation cells at S phase at 5 uM measured after 48 hrs incubation by flow cytometry (reference value: 18.33%); assay type: functional
LNCaP C4-2B [10] = assay: Induction of cell cycle arrest in human LNCaP C4-2B cells assessed as accumulation cells at G0/G1 phase at 10 uM measured after 48 hrs incubation by flow cytometry (reference value: 70.82%); assay type: functional
LNCaP C4-2B [11] = assay: Induction of cell cycle arrest in human LNCaP C4-2B cells assessed as accumulation cells at G2/M phase at 10 uM measured after 48 hrs incubation by flow cytometry (reference value: 10.85%); assay type: functional
LNCaP C4-2B [12] = assay: Induction of cell cycle arrest in human LNCaP C4-2B cells assessed as accumulation cells at S phase at 10 uM measured after 48 hrs incubation by flow cytometry (reference value: 18.33%); assay type: functional
LNCaP C4-2B [13] = assay: Induction of cell cycle arrest in human LNCaP C4-2B cells assessed as accumulation cells at G0/G1 phase at 20 uM measured after 48 hrs incubation by flow cytometry (reference value: 70.82%); assay type: functional
LNCaP C4-2B [14] = assay: Induction of cell cycle arrest in human LNCaP C4-2B cells assessed as accumulation cells at G2/M phase at 20 uM measured after 48 hrs incubation by flow cytometry (reference value: 10.85%); assay type: functional
LNCaP C4-2B [15] = assay: Induction of cell cycle arrest in human LNCaP C4-2B cells assessed as accumulation cells at S phase at 20 uM measured after 48 hrs incubation by flow cytometry (reference value: 18.33%); assay type: functional
LNCaP C4-2B [16] = assay: Induction of cell cycle arrest in human LNCaP C4-2B cells assessed as accumulation cells at G0/G1 phase at 40 uM measured after 48 hrs incubation by flow cytometry (reference value: 70.82%); assay type: functional
LNCaP C4-2B [17] = assay: Induction of cell cycle arrest in human LNCaP C4-2B cells assessed as accumulation cells at G2/M phase at 40 uM measured after 48 hrs incubation by flow cytometry (reference value: 10.85%); assay type: functional
LNCaP C4-2B [18] = assay: Induction of cell cycle arrest in human LNCaP C4-2B cells assessed as accumulation cells at S phase at 40 uM measured after 48 hrs incubation by flow cytometry (reference value: 18.33%); assay type: functional
LNCaP [19] = assay: Inhibition of AR protein expression in human LNCaP cells measured after 48 hrs by Western blot analysis; assay type: functional, cell-based; conditions: dose 12.5-50 µM
LNCaP C4-2B [20] = assay: Inhibition of AR protein expression in human LNCaP C4-2B cells measured after 48 hrs by Western blot analysis; assay type: functional, cell-based; conditions: dose 12.5-50 µM
LNCaP C4-2B [21] = assay: Inhibition of colony formation in human LNCaP C4-2B cells measured after 14 days incubation by Crystal-violet staining based assay; assay type: functional, cell-based; conditions: dose 10-40 µM, time 14.0 day

SMILES: COC(=O)c1ccc(Cl)cc1NC(=O)COc1ccc(OC)c2ccccc12
Activity (LNCaP [1]): inactive

SMILES: COC(=O)c1ccc(C)cc1NC(=O)COc1cccc2ccccc12
Activity (LNCaP [1]): inactive

SMILES: COC(=O)c1ccc(C(F)(F)F)cc1NC(=O)COc1cccc2ccccc12
Activity (LNCaP [1]): inactive

SMILES: COC(=O)c1ccc(Cl)cc1NC(=O)COc1ccc(F)c2ccccc12
Activity (LNCaP [1]): inactive

SMILES: COC(=O)c1cc(F)c(Cl)cc1NC(=O)COc1cccc2ccccc12
IC50 (LNCaP [1]): 42.1 µM

SMILES: COC(=O)c1ccc(Br)cc1NC(=O)COc1cccc2ccccc12
IC50 (LNCaP [1]): 48.5 µM

SMILES: O=C(COc1cccc2ccccc12)Nc1cc(Cl)ccc1C(=O)O
IC50 (LNCaP [1]): > 50 µM
Activity (LNCaP C4-2B [2]): inactive

Second part, led by results:

IC50 (LNCaP [1]): 33.9 µM
SMILES: CNC(=O)c1ccc(Cl)cc1NC(=O)COc1cccc2ccccc12

IC50 (LNCaP [1]): 12.3 µM
IC50 (LNCaP C4-2B [2]): 8.76 µM
SMILES: COC(=O)c1ccc(I)cc1NC(=O)COc1cccc2ccccc12
Activity (LNCaP C4-2B [3]): 34.5%
Activity (LNCaP C4-2B [4]): 79%
Activity (LNCaP C4-2B [5]): 92.9%
Activity (LNCaP C4-2B [6]): 96.6%
Activity (LNCaP C4-2B [7]): 70.84%
Activity (LNCaP C4-2B [8]): 11.05%
Activity (LNCaP C4-2B [9]): 18.11%
Activity (LNCaP C4-2B [10]): 71.03%
Activity (LNCaP C4-2B [11]): 11.44%
Activity (LNCaP C4-2B [12]): 17.53%
Activity (LNCaP C4-2B [13]): 77.27%
Activity (LNCaP C4-2B [14]): 10.12%
Activity (LNCaP C4-2B [15]): 12.61%
Activity (LNCaP C4-2B [16]): 79.62%
Activity (LNCaP C4-2B [17]): 8.84%
Activity (LNCaP C4-2B [18]): 11.54%
inhibition (LNCaP [19]): Dose-Dependent Effect
inhibition (LNCaP C4-2B [20]): Dose-Dependent Effect

IC50 (LNCaP [1]): 19.9 µM
SMILES: COC(=O)c1ccc(Cl)cc1NC(=O)COc1ccc(Cl)c2ccccc12

IC50 (LNCaP [1]): 19.6 µM
SMILES: COC(=O)c1ccc(OC)cc1NC(=O)COc1cccc2ccccc12

IC50 (LNCaP [1]): 32.5 µM
SMILES: COC(=O)c1ccc(Cl)cc1NC(=O)COc1ccnc2ccccc12

IC50 (LNCaP [1]): 19 µM
SMILES: COC(=O)c1ccc(Cl)cc1NC(=O)C(C)Oc1cccc2ccccc12 (stereo not given)

IC50 (LNCaP [1]): 25.4 µM
SMILES: COC(=O)c1ccc(Cl)cc1NC(=O)COc1cccc2cnccc12

IC50 (LNCaP [1]): 17.1 µM
IC50 (LNCaP C4-2B [2]): 33.5 µM
SMILES: COC(=O)c1ccc(Cl)cc1NC(=O)COc1cccc2ccccc12

IC50 (LNCaP [1]): 32 µM
SMILES: COC(=O)c1ccc(F)cc1NC(=O)COc1cccc2ccccc12

IC50 (LNCaP [1]): 13.3 µM
IC50 (LNCaP C4-2B [2]): > 50 µM
SMILES: COC(=O)c1ccc(Cl)cc1NC(=O)COc1ccc(Br)c2ccccc12
inhibition (LNCaP C4-2B [21]): Dose-Dependent Effect
